Results on two substances are retold here after US6488909B1, “Chelating agents as well as their tricarbonyl complexes with technetium and rhenium” (Schering Aktiengesellschaft, priority 1998, dated 2002).

Data set [1] is described as follows: Stability study: histidine challenge, radiochemical composition by HPLC on RP18 column. The data set is classed as physicochemical. The note with it: stirred 1 hour at 50° C. As to the method: (§1) The complexes are stable, so that at room temperature, no exchange of chelating agents for histidine is carried out. The. chelates and tricarbonyl-Tc-99m and Re-tricarbonyl complexes that are described in this invention are thus clearly better suited for diagnostic and therapeutic purposes than the previously known systems. A special advantage of the compounds according to the invention consists in the fact that their syntheses can be directed without using sulfur protective groups. This makes their synthesis very simple, and in addition, such compounds that are described according to the invention in particular offer the advantage that after radiochemical labeling, no further foreign molecules are contained in the solutions that are to be administered intravenously for radiodiagnosis or radiotherapy. Such foreign molecules frequently disrupt the biodistribution of the radiopharmaceutical agent and can adversely affect the diagnostic information content of the SPECT imaging. In addition, the labelings on such ligands or their coupling products can be performed on substances that accumulate selectively on diseased tissues under very mild conditions. […]

A short description of data set [2]: Incubation of the Tc-99m-tricarbonyl complex in serum. The data set is classed as in vitro ADME. The note with it: 26 hours of incubation in serum. The procedure:
as §1

“Tc-99m-Tricarbonyl Complex of {2-(1H-pyrazol1-yl)-ethylimino}-diacetic Acid-monopropylamide [Example 7b]”: the “radiochemical composition (HPLC chromatogram) after histidine challenge” value in data set [1] (20 mg of histidine) was “unchanged”.

Regarding “Tc-99m-Tricarbonyl complex of N-(hydroxycarboxy-methyl)-N-(N′-propyl-carbamido-methyl)-S-ethyl-2-mercaptoethylamine [Example 2b]”, in data set [2], the “decomposition products after incubation in serum” value is reported as “no decomposition products”. For the same substance, in data set [1] (10 mg of histidine), the “radiochemical composition (HPLC chromatogram) after histidine challenge” value is “unchanged”.
